Results reported in patent EP4800013A1, “PARG INHIBITOR” (Shanghai Qilu Pharmaceutical Research and Development …, priority 2023, dated 2025).

Target: T1, PARG (Homo sapiens, UniProt Q86W56)
T1 construct: made in house
Experiment: Enzymatic inhibitory activity against PARG, HTRF assay
Assay type: biochemical
Details: HTRF; PARylated PARP1 protein as substrate; 60 minutes at room temperature; read-out: IC50 against PARG enzyme
Experimental: In this experiment, the enzymatic inhibitory activity of the compounds of the present disclosure against PARG was determined using an HTRF (homogeneous time-resolved fluorescence) assay.
HTRF assay reagents were purchased from PerkinElmer (Cat. Nos. 61HISTLB and 610SAXLB). The purified protein was prepared in-house.
PARG enzyme reaction buffer: 50 mM Tris (pH 7.4), 0.1 mg/mL BSA, 3 mM EDTA, 0.4 mM EGTA, 1 mM DTT, 50 mM KCl, and 0.01% Tween 20.
• 1) Using an ultra-micro pipette, the compounds of the present disclosure were serially diluted (starting at 10 µM with 3- to 5-fold serial dilutions) and added to a 384-well reaction plate, with each concentration tested in duplicate wells. Control group 1 was added with 10 µM control compound (100% inhibition group). Control group 2 was added with DMSO (0% inhibition group). After compound addition, the 384-well plate was centrifuged at 1000 rpm for 1 minute. • 2) 2.5 µL of PARG protein was added to each well and incubated with the compounds of the present disclosure at room temperature for 15 minutes, followed by centrifugation at 1000 rpm for 1 minute. • 3) 2.5 µL of PARylated PARP1 protein was added to each well and incubated at room temperature for 60 minutes, followed by centrifugation at 1000 rpm for 1 minute. • 4) 5 µL of His-Tb & SA-XL665 HTRF assay reagents were added to each well and incubated at room temperature for 60 minutes, followed by centrifugation at 1000 rpm for 1 minute. • 5) […] were measured using a PHERAstar FSX microplate reader from BMG. • 6) Data analysis was performed using GraphPad Prism 8. The IC50 values of the compounds of the present disclosure were calculated as follows. […] The average value of duplicate wells in control group 2 (0% inhibition group) was set as the relative inhibition rate of 0%. The HTRF signal values were converted into relative inhibition rates. The IC50 values of the compounds were calculated by fitting the data to a four-parameter logistic model. Table 15: Enzymatic inhibitory activity of the compounds of the present disclosure against PARG

T1 sequence (Q86W56 whole entry): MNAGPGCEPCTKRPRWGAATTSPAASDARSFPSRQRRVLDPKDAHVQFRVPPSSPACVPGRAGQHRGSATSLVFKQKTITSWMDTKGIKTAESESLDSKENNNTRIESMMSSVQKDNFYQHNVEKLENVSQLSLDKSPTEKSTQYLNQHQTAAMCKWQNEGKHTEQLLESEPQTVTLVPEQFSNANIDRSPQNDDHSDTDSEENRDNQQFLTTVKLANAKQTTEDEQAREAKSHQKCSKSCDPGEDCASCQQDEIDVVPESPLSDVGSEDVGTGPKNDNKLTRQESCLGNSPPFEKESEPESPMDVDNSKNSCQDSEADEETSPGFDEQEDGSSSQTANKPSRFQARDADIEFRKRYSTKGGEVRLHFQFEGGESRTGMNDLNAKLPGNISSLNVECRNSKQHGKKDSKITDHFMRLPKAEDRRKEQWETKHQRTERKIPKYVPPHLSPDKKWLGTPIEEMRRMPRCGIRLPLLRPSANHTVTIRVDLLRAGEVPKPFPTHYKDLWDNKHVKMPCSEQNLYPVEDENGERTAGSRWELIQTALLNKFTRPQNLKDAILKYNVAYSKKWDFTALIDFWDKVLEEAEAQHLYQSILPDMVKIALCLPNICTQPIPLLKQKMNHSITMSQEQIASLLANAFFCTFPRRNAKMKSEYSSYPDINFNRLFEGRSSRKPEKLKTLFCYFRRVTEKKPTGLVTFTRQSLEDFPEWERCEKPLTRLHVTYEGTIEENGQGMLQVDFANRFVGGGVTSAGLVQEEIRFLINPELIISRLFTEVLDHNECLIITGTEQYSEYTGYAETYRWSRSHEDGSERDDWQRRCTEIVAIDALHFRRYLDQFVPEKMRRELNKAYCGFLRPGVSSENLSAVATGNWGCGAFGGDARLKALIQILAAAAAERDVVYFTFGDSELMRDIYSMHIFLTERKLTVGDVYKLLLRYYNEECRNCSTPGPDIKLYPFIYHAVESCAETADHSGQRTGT

| Compound | IC50 [nM] |
| --- | --- |
| C[C@H]1CN(c2cc(S(=O)(=O)NC3(C)CC3)cc3c2nnn3-c2nnc(C(F)F)s2)C[C@H](C)N1 [Compound 008B] | 9.6 |
| CC(C)S(=O)(=O)N1CCN(c2cc(S(=O)(=O)NC3(C#N)CC3)cc3c2nc(OC2CC2)n3-c2nnc(C(F)F)s2)CC1 [Compound 057P] | 29.3 |
| C=CCn1c(=O)n(-c2nnc(C(F)F)s2)c2cc(S(=O)(=O)NC3(C#N)CC3)cc(N3CCN(c4ncc[nH]4)CC3)c21 [Compound 067JD] | 31.6 |
| C=CCn1c(=O)n(-c2nnc(C(F)F)s2)c2cc(S(=O)(=O)NC3(C#N)CC3)cc(N3CCN(C(=O)NC)CC3)c21 [Compound 067M] | 29 |
| C=CCn1c(=O)n(-c2nnc(C(F)F)s2)c2cc(S(=O)(=O)NC3(C#N)CC3)cc(N3CCN(C(=O)C(C)C)[C@H](C)C3)c21 [Compound 069D] | 23.5 |
| CC(C)C(=O)N1CCN(c2cc(S(=O)(=O)NC3(C#N)CC3)cc3c2n(CC#N)c(=O)n3-c2nnc(C(F)F)s2)CC1 [Compound 074J] | 10.8 |
| C=CCn1c(=O)n(-c2nnc(C(F)F)s2)c2cc(S(=O)(=O)NC3(C#N)CC3)cc(N3CCN(S(=O)(=O)c4ccn(C)n4)CC3)c21 [Compound 075B] | 35.7 |
| C=CCn1c(=O)n(-c2nnc(C(F)F)s2)c2cc(S(=O)(=O)NC3(C#N)CC3)cc(N3CCN(C(=O)C(C)(C)NC(=O)OC)CC3)c21 [Compound 076A] | 13 |
| C=CCn1c(=O)n(-c2nnc(C(F)F)s2)c2cc(S(=O)(=O)NC3(C#N)CC3)cc(N3CCN(C(=O)C4(C)CCCN4)CC3)c21 (centres unmarked) [Compound 076B] | 9.7 |
| C=CCn1c(=O)n(-c2nnc(C(F)F)s2)c2cc(S(=O)(=O)NC3(C#N)CC3)cc(N3CCN(C(=O)C4CCCN4)CC3)c21 (centres unmarked) [Compound 076C] | 8.6 |
| C=CCn1c(=O)n(-c2nnc(C(F)F)s2)c2cc(S(=O)(=O)NC3(C#N)CC3)cc(N3CCN(C(=O)C4CCCN4C)CC3)c21 (centres unmarked) [Compound 076D] | 14.7 |
| C=CCn1c(=O)n(-c2nnc(C(F)F)s2)c2cc(S(=O)(=O)NC3(C#N)CC3)cc(N3CCN(C(=O)[C@@H]4CCC5(CC5)N4)CC3)c21 [Compound 076F1] | 30.6 |
| C=CCn1c(=O)n(-c2nnc(C(F)F)s2)c2cc(S(=O)(=O)NC3(C#N)CC3)cc(N3CCN(C(=O)C4CCC(=O)N4)CC3)c21 (centres unmarked) [Compound 076G] | 9 |
| C[C@H]1CN(c2cc(S(=O)(=O)NC3(C#N)CC3)cc3c2nc(C2CCCO2)n3-c2nnc(C(F)F)s2)C[C@H](C)N1 (some centres unmarked) [Compound 077J] | 10.4 |
| C[C@H]1CN(c2cc(S(=O)(=O)NC3(C)COC3)cc3c2nc(C2CCCO2)n3-c2nnc(C(F)F)s2)C[C@H](C)N1 (some centres unmarked) [Compound 077K] | 12.8 |
| C[C@H]1CN(c2cc(S(=O)(=O)NC3(C)CC3)cc3c2nc(C2CNCCO2)n3-c2nnc(C(F)F)s2)C[C@H](C)N1 (some centres unmarked) [Compound 077Y] | 10.3 |
| C[C@H]1CN(c2cc(S(=O)(=O)NC3(C)CC3)cc3c2nc([C@@H]2CC4(CC4)CO2)n3-c2nnc(C(F)F)s2)C[C@H](C)N1 [Compound 079M2] | 1.9 |
| C[C@H]1CN(c2cc(S(=O)(=O)NC3(C)CC3)cc3c2nc(C2CCOC2)n3-c2nnc(C(F)F)s2)C[C@H](C)N1 (some centres unmarked) [Compound 079N] | 6.2 |
| C[C@H]1CN(c2cc(S(=O)(=O)NC3(C)CC3)cc3c2cc(N=S(C)(C)=O)n3-c2nnc(C(F)F)s2)C[C@H](C)N1 [Compound 082E] | 5.5 |
| CN(C)C(=O)N1CCN(c2cc(S(=O)(=O)NC3(C#N)CC3)cc3c2n(CC(F)(F)F)c(=O)n3-c2nnc(C(F)F)s2)CC1 [Compound A044] | 7 |
| C=CCn1c(=O)n(-c2nnc(C(F)F)s2)c2cc(S(=O)(=O)NC3(C#N)CC3)cc(N3CCN(C(=O)NC4CC4)CC3)c21 [Compound A054] | 38.6 |
| CC(C)C(=O)N1CCN(c2cc(S(=O)(=O)NC3(C#N)CC3)cc3c2n(C2CC2)c(=O)n3-c2nnc(C(F)F)s2)CC1 [Compound A055] | 11.9 |
| CC(C)S(=O)(=O)N1CCN(c2cc(S(=O)(=O)NC3(C#N)CC3)cc3c2n(C2CC2)c(=O)n3-c2nnc(C(F)F)s2)CC1 [Compound A056] | 5.2 |
| C[C@H]1CN(c2cc(S(=O)(=O)NC3(C)CC3)cc3c2ncn3-c2nnc(C(F)F)s2)C[C@H](C)N1 [Compound B004] | 15.6 |
| C[C@H]1CN(c2cc(S(=O)(=O)NC3(C)CC3)cc3c2ncn3-c2nnc(C(F)F)s2)C[C@H](C)N1C(=O)N(C)C [Compound B005] | 11.5 |
| CC(C)(O)C(=O)N1CCN(c2cc(S(=O)(=O)NC3(C#N)CC3)cc3c2ncn3-c2nnc(C(F)F)s2)CC1 [Compound B015] | 15.8 |
| CN(C)C(=O)N1CC=C(c2cc(S(=O)(=O)NC3(C#N)CC3)cc3c2ncn3-c2nnc(C(F)F)s2)CC1 [Compound B022] | 18.7 |
| CC(C)C(=O)N1CC=C(c2cc(S(=O)(=O)NC3(C#N)CC3)cc3c2ncn3-c2nnc(C(F)F)s2)CC1 [Compound B023] | 16.7 |
| C[C@H]1CN(c2cc(S(=O)(=O)NC3(C)CC3)cc3c2n2ccnc2n3-c2nnc(C(F)F)s2)C[C@H](C)N1 [Compound B024] | 16.5 |
| C[C@H]1CN(c2cc(S(=O)(=O)NC3(C)CC3)cc3c2c2nccnc2n3-c2nnc(C(F)F)s2)C[C@H](C)N1 [Compound H001] | 1.1 |

System: KURAMOCHI cells
Experiment: Inhibition of proliferation of KURAMOCHI cells (CellTiter-Glo, intracellular ATP)
Assay type: cell-based
Details: 168 h, incubated for 7 days, read-out: IC50 against KURAMOCHI cells
Experimental: In this experiment, the inhibitory effect of the compounds of the present disclosure on the proliferation of the cancer cell line KURAMOCHI was evaluated by measuring intracellular ATP levels using a bioluminescent assay, and the half maximal inhibitory concentration (IC50) was determined.
RPMI 1640 medium (Cat. No. 11875-093), fetal bovine serum (10099-141), and 100× Pen/Strep (15070-063) were purchased from GIBCO. CellTiter-Glo Luminescent Cell Viability Assay reagent (Cat. No. G7573) was purchased from Promega.
• 1) Day 1: KURAMOCHI cells were counted using a cell counter and seeded into a 96-well culture plate at a density of 4000 cells per well in 100 µL medium. The plate was incubated overnight in an incubator (37°C, 5% CO2). • 2) Day 2: Using a D300e digital dispenser (TECAN), 500 nL of serially diluted test compounds of the present disclosure (starting at 10 µM, a total of 9 concentrations, 1:4 dilution) were added to the cells in the culture plate. The final concentration of DMSO was 0.5%. The cell culture plate was incubated for 7 days in a cell culture incubator (37°C, 5% CO2). Control group 1 received only medium and DMSO (100% inhibition group). Control group 2 received only DMSO (0% inhibition group). The final concentration of DMSO in both groups was 0.5%. • 3) Day 9: 100 µL of CellTiter-Glo reagent was added to each well. The plate was shaken at 500 rpm for 2 minutes, centrifuged at 1000 rpm for 1 minute, and then incubated at room temperature in the dark for 10 minutes to stabilize the luminescence signal. • 4) Luminescence signals were measured using an EnVision microplate reader (PerkinElmer). • 5) Data analysis was performed using GraphPad Prism 8. The IC50 values of the compounds of the present disclosure were calculated as follows. The CTG signal values were analyzed. The average inhibition rate of control group 1 (100% inhibition group) was set as the relative inhibition rate of 100%. The average inhibition rate of control group 2 (0% inhibition group) was set as the relative inhibition rate of 0%. The CTG signal values were converted into relative inhibition rates. The inhibition percentage (inhibition%) for each concentration of the compounds of the present disclosure was calculated according to the following formula: Inhibition% = (b−x)/(b−a)*100%; [formula] • a = CTG value (highest concentration), b = CTG value (blank well), x = CTG value (test well). • IC50 was calculated using GraphPad Prism 8. • (1) The concentration and inhibition rate corresponding to each well were recorded. Statistical calculation was performed using Log10 (compound concentration). • (2) The data were input into GraphPad Prism 8 and Analysis was selected. • (3) Nonlinear regression (curve fit) was selected. • (4) Log (inhibitor) vs. response - Variable slope was selected. • (5) The calculation formula was selected, and the calculation was performed according to the following formula: Y = Bottom + (Top - Bottom) / (1 + 10 ^ ((LogIC50 - X) * HillSlope)); X: log of dose or concentration; Y: response; Top and Bottom: maximum and minimum response. • (6) The IC50 values were calculated by fitting the data. Table 16: Inhibitory effect of the compounds of the present disclosure on the proliferation of KURAMOCHI cells

| Compound | IC50 [nM] |
| --- | --- |
| C[C@H]1CN(c2cc(S(=O)(=O)NC3(C)CC3)cc3c2nnn3-c2nnc(C(F)F)s2)C[C@H](C)N1 [Compound 008B] | 9 |
| C[C@H]1CN(c2cc(S(=O)(=O)NC3(C)CC3)cc3c(-c4nnc(C(F)F)s4)noc23)C[C@H](C)N1 [Compound 021B] | 11 |
| C=CCn1c(=O)n(-c2nnc(C(F)F)s2)c2cc(S(=O)(=O)NC3(C#N)CC3)cc(N3CC4CC3CN4S(=O)(=O)C(C)C)c21 (centres unmarked) [Compound 069E] | 55 |
| C=CCn1c(=O)n(-c2nnc(C(F)F)s2)c2cc(S(=O)(=O)NC3(C#N)CC3)cc(N3CCN(C(=O)C4CC(F)(F)C4)CC3)c21 [Compound 072D] | 52 |
| C[C@H]1CN(c2cc(S(=O)(=O)NC3(C)CC3)cc3c2nc(-c2nccs2)n3-c2nnc(C(F)F)s2)C[C@H](C)N1 [Compound 077S] | 58 |
| C=CC1CN(c2cc(S(=O)(=O)NC3(C)CC3)cc3c2cnn3-c2nnc(C(F)F)s2)C[C@H](C)N1 (some centres unmarked) [Compound 078A] | 30 |
| C#CC1CN(c2cc(S(=O)(=O)NC3(C)CC3)cc3c2cnn3-c2nnc(C(F)F)s2)C[C@H](C)N1 (some centres unmarked) [Compound 078B] | 34 |
| C=C[C@H]1CN(c2cc(S(=O)(=O)NC3(C)CC3)cc3c2cnn3-c2nnc(C(F)F)s2)C[C@H](C=C)N1 [Compound 078C] | 15 |
